This is an account of results in US10071974B2, “Morpholine and 1,4-oxazepane amides as somatostatin receptor subtype 4 (SSTR4) agonists” (Boehringer Ingelheim International GmbH, priority 2014, dated 2018).

Chain of human Somatostatin 4 Receptor (SSTR4) (P31391 whole entry): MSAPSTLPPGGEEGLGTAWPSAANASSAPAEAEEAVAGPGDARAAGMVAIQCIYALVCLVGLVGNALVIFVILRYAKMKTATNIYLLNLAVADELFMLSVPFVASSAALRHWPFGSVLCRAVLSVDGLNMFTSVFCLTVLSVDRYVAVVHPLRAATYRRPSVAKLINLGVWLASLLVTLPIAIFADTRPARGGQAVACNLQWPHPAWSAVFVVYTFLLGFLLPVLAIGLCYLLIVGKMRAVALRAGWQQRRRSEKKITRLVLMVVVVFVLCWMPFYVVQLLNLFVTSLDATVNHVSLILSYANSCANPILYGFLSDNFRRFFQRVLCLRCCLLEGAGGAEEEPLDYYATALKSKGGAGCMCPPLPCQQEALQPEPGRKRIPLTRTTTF

The assay concerns the target human Somatostatin 4 Receptor (SSTR4) (Homo sapiens (Human), UniProt P31391). Briefly: cAMP assay with human somatostatin 4 receptor (hSSTR4 expressing H4 cells). Particulars: read-out: SSTR4 agonism EC50. In kind it is cell-based. (In general: Changes in cAMP serve as a functional read-out for many G protein-coupled receptors.)
In the case of `CC(C)(COc1nccc2ccccc12)NC(=O)C1CNCCOC1` (racemic) [Example 16], the half-maximal effective concentration (EC50) – broadly, the concentration at which the effect is half-maximal – was found to be 0.393 µM. The figure for `Cc1cccc2c(C(C)(C)NC(=O)C3CNCCOC3)cnn12` (racemic) [Example 33] is 0.0077 µM; for `Cc1ncc(C(C)(C)NC(=O)C2CNCCOC2)c2ccccc12` (racemic) [Example 40] it is 0.0008 µM; for `Cc1cc2ccccc2c(C(C)(C)NC(=O)C2CNCCCO2)n1` (racemic) [Example 47] it is 0.0259 µM.

As to `Cc1cc2ccccc2c(C(C)(C)NC(=O)C2CCNCCO2)n1` (racemic) [Example 50], the concentration for a half-maximal effect (EC50) worked out at 0.105 µM.

As for `Cc1cccc2c(C(C)(C)NC(=O)C3CNCCOC3)noc12` (racemic) [Example 54], the EC50 worked out at 0.0082 µM.

As to `Cc1cccc2c(C(C)(C)NC(=O)C3CNCCOC3)n[nH]c12` (racemic) [Example 58], the half-maximal effective concentration (EC50) came to 0.0041 µM. As for `CC(C)(NC(=O)C1CNCCOC1)c1noc2c(F)cccc12` (racemic) [Example 62], the EC50 came out at 0.0657 µM. With `CC(C)(NC(=O)C1CNCCCO1)c1noc2c(F)cccc12` (racemic) [Example 65] the figure was 0.998 µM; with `CC(C)(NC(=O)C1CCNCCO1)c1noc2c(F)cccc12` (racemic) [Example 68], 0.628 µM; with `Cn1nc(C(C)(C)NC(=O)C2CNCCOC2)c2cccc(Cl)c21` (racemic) [Example 80], 0.0048 µM. As to `Cc1cccc2c(C(C)(C)NC(=O)C3CNCCOC3)nn(C)c12` (racemic) [Example 84], the half-maximal effective concentration (EC50) turned out to be 0.0045 µM. The figure for `CC(C)(NC(=O)C1CNCCOC1)c1n[nH]c2c(F)cccc12` (racemic) [Example 88] is 0.0111 µM; for `CC(C)(NC(=O)C1CNCCOC1)c1n[nH]c2c(Cl)cccc12` (racemic) [Example 92] it is 0.0025 µM. The figure for `COc1cccn2c(C(C)(C)NC(=O)C3CNCCOC3)ncc12` (racemic) [Example 123] is 0.0324 µM. Consider `Cc1nc(C(C)(C)NC(=O)C2CNCCOC2)c2cccc(C)c2n1` (racemic) [Example 133], for which the concentration for a half-maximal effect (EC50) came out at 0.0553 µM.

As for `Cc1cccn2c(C(C)(C)NC(=O)C3CNCCOC3)ccc12` (racemic) [Example 135], the 50% effective concentration (EC50) came to 0.0085 µM.

Take `Cc1cccn2c(C(C)(C)NC(=O)C3CNCCOC3)nc(C3CC3)c12` (racemic) [Example 138]: the 50% effective concentration (EC50) worked out at 0.0597 µM.

On to `Cc1cccn2c(C(C)(C)NC(=O)C3CCNCCO3)ncc12` (racemic) [Example 141], for which the concentration for a half-maximal effect (EC50) is 0.0902 µM. Turning to `Cc1cccn2c(C(C)(C)NC(=O)C3CNCCCO3)ncc12` (racemic) [Example 144], the EC50 was 0.0718 µM. Take `Cc1cccn2c(C(C)(C)NC(=O)C3CNCCCO3)nc(C)c12` (racemic) [Example 147]: the half-maximal effective concentration (EC50) came to 0.185 µM. As to `CC(C)(COc1nccc2ccccc12)NC(=O)C1CNCCOC1` (single isomer, unassigned) [Example 17], the 50% effective concentration (EC50) amounted to 30 µM. The figure for `CC(C)(COc1nccc2ccccc12)NC(=O)C1CNCCOC1` (single isomer, unassigned) [Example 18] is 0.209 µM.

With `Cn1nc(C(C)(C)NC(=O)C2CNCCOC2)c2ccccc21` (single isomer, unassigned) [Example 22], the concentration for a half-maximal effect (EC50) amounted to 0.192 µM.

Consider `Cn1nc(C(C)(C)NC(=O)C2CNCCCO2)c2ccccc21` (single isomer, unassigned) [Example 25], for which the EC50 was 1 µM. `Cn1nc(C(C)(C)NC(=O)C2CCNCCO2)c2ccccc21` (single isomer, unassigned) [Example 28]: the EC50 worked out at 0.0484 µM. As to `Cc1cccc2c(C(C)(C)NC(=O)C3CNCCOC3)cnn12` (single isomer, unassigned) [Example 35], the EC50 amounted to 2.86 µM. `Cc1ncc(C(C)(C)NC(=O)C2CNCCOC2)c2ccccc12` (single isomer, unassigned) [Example 42]: the EC50 came out at 0.415 µM. Take `Cc1cc2ccccc2c(C(C)(C)NC(=O)C2CNCCOC2)n1` (single isomer, unassigned) [Example 45]: the 50% effective concentration (EC50) came to 0.795 µM.

Take `Cc1cc2ccccc2c(C(C)(C)NC(=O)C2CNCCCO2)n1` (single isomer, unassigned) [Example 49]: the EC50 turned out to be 0.988 µM.

For the compound `Cc1cc2ccccc2c(C(C)(C)NC(=O)C2CCNCCO2)n1` (single isomer, unassigned) [Example 51], the EC50 was found to be 0.0429 µM.

`Cc1cc2ccccc2c(C(C)(C)NC(=O)C2CCNCCO2)n1` (single isomer, unassigned) [Example 52]: the half-maximal effective concentration (EC50) came to 0.0489 µM. For `Cc1cccc2c(C(C)(C)NC(=O)C3CNCCOC3)noc12` (single isomer, unassigned) [Example 56], the EC50 was found to be 0.737 µM. In the case of `Cc1cccc2c(C(C)(C)NC(=O)C3CNCCOC3)n[nH]c12` (single isomer, unassigned) [Example 59], the concentration giving a half-maximal response (EC50) was found to be 1.07 µM.

As to `CC(C)(NC(=O)C1CNCCOC1)c1noc2c(F)cccc12` (single isomer, unassigned) [Example 63], the EC50 is 0.042 µM. Regarding `CC(C)(NC(=O)C1CNCCOC1)c1noc2c(F)cccc12` (single isomer, unassigned) [Example 64], the EC50 turned out to be 1.86 µM. For the compound `CC(C)(NC(=O)C1CNCCCO1)c1noc2c(F)cccc12` (single isomer, unassigned) [Example 66], the concentration for a half-maximal effect (EC50) is 0.625 µM. With `CC(C)(NC(=O)C1CNCCCO1)c1noc2c(F)cccc12` (single isomer, unassigned) [Example 67] the figure was 23 µM; with `CC(C)(NC(=O)C1CCNCCO1)c1noc2c(F)cccc12` (single isomer, unassigned) [Example 69], 0.434 µM; with `CC(C)(NC(=O)C1CCNCCO1)c1noc2c(F)cccc12` (single isomer, unassigned) [Example 70], 0.544 µM. The figure for `Cn1nc(C(C)(C)NC(=O)C2CNCCOC2)c2cccc(F)c21` (single isomer, unassigned) [Example 78] is 0.43 µM; for `Cn1nc(C(C)(C)NC(=O)C2CNCCOC2)c2cccc(Cl)c21` (single isomer, unassigned) [Example 81] it is 0.152 µM. The figure for `Cc1cccc2c(C(C)(C)NC(=O)C3CNCCOC3)nn(C)c12` (single isomer, unassigned) [Example 86] is 1 µM. `CC(C)(NC(=O)C1CNCCOC1)c1n[nH]c2c(F)cccc12` (single isomer, unassigned) [Example 90]: the EC50 came to 0.67 µM. The figure for `CC(C)(NC(=O)C1CNCCOC1)c1n[nH]c2c(Cl)cccc12` (single isomer, unassigned) [Example 94] is 0.031 µM. With `Cc1cccn2c(C(C)(NC(=O)[C@@H]3CNCCO3)C3CC3)ncc12` (single isomer, unassigned) [Example 110] the figure was 1 µM; with `Cc1cccn2c(C(C)(NC(=O)[C@@H]3CNCCO3)C3CC3)ncc12` (single isomer, unassigned) [Example 111], 0.29 µM; with `Cc1cccn2c(C(C)(CC(C)C)NC(=O)[C@@H]3CNCCO3)ncc12` (single isomer, unassigned) [Example 112], 5.5 µM. For `Cc1cccn2c(C(C)(CC(C)C)NC(=O)[C@@H]3CNCCO3)ncc12` (single isomer, unassigned) [Example 113], the concentration giving a half-maximal response (EC50) stood at 0.38 µM. With `Cc1cccn2c(C3(NC(=O)[C@@H]4CNCCO4)CCOC3)ncc12` (single isomer, unassigned) [Example 114] the figure was 1 µM; with `Cc1cccn2c(C3(NC(=O)[C@@H]4CNCCO4)CCOC3)ncc12` (single isomer, unassigned) [Example 115], 0.294 µM; with `Cc1cccn2c(C(C)(C)NC(=O)C3CNCCOC3)ncc12` (single isomer, unassigned) [Example 118], 0.0868 µM. As for `CC(C)(NC(=O)C1CNCCOC1)c1ncc2c(Cl)cccn12` (single isomer, unassigned) [Example 119], the EC50 is 0.0739 µM. The figure for `Cc1nc(C(C)(C)NC(=O)C2CNCCOC2)n2cccc(F)c12` (single isomer, unassigned) [Example 121] is 0.0111 µM. As to `Cc1nc(C(C)(C)NC(=O)C2CNCCOC2)n2cccc(F)c12` (single isomer, unassigned) [Example 122], the 50% effective concentration (EC50) worked out at 1 µM. On to `COc1cccn2c(C(C)(C)NC(=O)C3CNCCOC3)ncc12` (single isomer, unassigned) [Example 124], for which the EC50 was 1 µM. The figure for `COc1cccn2c(C(C)(C)NC(=O)C3CNCCOC3)ncc12` (single isomer, unassigned) [Example 125] is 0.0164 µM. With `Cc1cccn2c(C(C)(C)NC(=O)C3CNCCOC3)nc(C)c12` (single isomer, unassigned) [Example 129] the figure was 0.0053 µM. Turning to `Cc1cccn2c(C(C)(C)NC(=O)C3CNCCOC3)nc(C)c12` (single isomer, unassigned) [Example 130], the EC50 stood at 0.466 µM.

In the case of `Cc1cccn2c(C3(NC(=O)C4CNCCOC4)CCC3)ncc12` (single isomer, unassigned) [Example 131], the concentration giving a half-maximal response (EC50) was found to be 0.019 µM. The figure for `Cc1cccn2c(C3(NC(=O)C4CNCCOC4)CCC3)ncc12` (single isomer, unassigned) [Example 132] is 10 µM; for `Cc1nc(C(C)(C)NC(=O)C2CNCCOC2)c2cccc(C)c2n1` (single isomer, unassigned) [Example 134] it is 0.0981 µM. The figure for `Cc1cccn2c(C(C)(C)NC(=O)C3CNCCOC3)ccc12` (single isomer, unassigned) [Example 137] is 1.43 µM; for `Cc1cccn2c(C(C)(C)NC(=O)C3CNCCOC3)nc(C3CC3)c12` (single isomer, unassigned) [Example 139] it is 0.0222 µM. The figure for `Cc1cccn2c(C(C)(C)NC(=O)C3CNCCOC3)nc(C3CC3)c12` (single isomer, unassigned) [Example 140] is 1 µM; for `Cc1cccn2c(C(C)(C)NC(=O)C3CCNCCO3)ncc12` (single isomer, unassigned) [Example 142] it is 0.0905 µM; for `Cc1cccn2c(C(C)(C)NC(=O)C3CCNCCO3)ncc12` (single isomer, unassigned) [Example 143] it is 0.0776 µM.
